Consider two compounds from US9650405B2, “Modified sophorolipids as oil solubilizing agents” (Polytechnic Institute of New York University, priority 2010, dated 2017).

The structures appear in SMILES notation. “And” between values parts separate entries of the source, which are not always exact repeats. Equal values may be shown once.

One may read the Solubility as the concentration that dissolves in the medium under given conditions. A high value points to much dissolved substance.

Series [1] is described as follows: Emulsion stability based on phase separation. The settings on record: for emulsion layer volume-%, one month / emulsion layer volume-%, start: oil/water 5/5, 2%-by-weight; for emulsion layer volume-%, one month: one month at room temperature; for emulsion layer volume-%, start / emulsion layer, start: start of aging; for emulsion phase, one month / emulsion layer, start: oil/water 7/3, 2%-by-weight; for emulsion phase, one month: one month aging; for emulsion layer percentage: paraffin oil/water 5/5, 2%-by-weight emulsifier, after 24 hours at 25° C. It is filed as physicochemical.

Series [2] is described as follows: Emulsion type: dilution test and oil soluble dye staining. Format: physicochemical. The settings on record: 2%-by-weight relative to water phase, oil/water 5/5 and 7/3. The method, then: In this test the emulsion is diluted either with oil (O) or water (W). If the emulsion is O/W type and it is diluted with water, it will remain stable as water is the dispersion medium. However, if the emulsion is O/W type and it is diluted with oil, the emulsion will break as oil and water are not miscible with each other. […] Emulsions of the O/W type have separated layers after dilution with pure oil but form a homogenous phase when diluted by water. Unless otherwise specified, the emulsion type formed by MSLs were oil in water.
In FIG. 13B, the tube on the left was diluted with 1 mL of oil whereas the tube on right was diluted with water. Visual observation of the tubes in FIG. 13B supports that the emulsions formed are indeed O/W emulsions.
Oil Red O was applied as an oil soluble dye and emerald green as water soluble dye in the process of emulsion preparation. Observations of emulsions were made before and after staining under optical microscope at 400× magnification (FIG. 14). […] The formation of O/W emulsions and not W/O emulsions with this set of MSL compounds would not be obvious to one skilled in the art. We believe that O/W emulsions are formed by this set of MSLs due to that large sophorose polar head groups requires relatively more space than the lipid tails and, therefore self-assemble into spherical type structures where disaccharide groups are locating outside the droplets.

For series [3] the following is noted: SL-esters; from earlier publication in Colloids and surfaces, 2004, 240, 75; cited from earlier work.
The nature of series [4]: Emulsion viscosity measurement. Format: physicochemical. On the procedure: Viscosity was measured at 25° C. with increasing shear rate from 1 S^−1 to 750 S^−1. The viscosity change was monitored for aging times up to 3 months. For all samples, the paraffin oil/water ratio is 7/3 and the surfactant concentrations studied were 0.5%, 1% to 2%-by-weight relative to the oil phase. FIG. 19 presents the viscosity change with shear rate for different aging times. […] The emulsion tested was prepared using 2%-by-weight SL-butyl ester relative to paraffin oil. Viscosity decreases with increased shear rate implying the emulsion follows shear shinning. Furthermore, viscosity decreased with increased storage time. […] This change is consistent with the small increase in oil phase particle size (1.7 to 2.1 μm) with aging from 1 day to 3-months (Tables 4 and 5).
Values of ηlow decreased with storage time to various extents that are dependent on the MSL compound used to stabilize the emulsion. […] The relative ability of different MSL structures to stabilize emulsions and thereby decrease the extent of decrease in viscosity as a function of aging time would not be predictable by one skilled in the art. The behavior as a function of MSL structure is related to emulsion dispersed phase droplet size. That is, the smaller the change in droplet size, the less decrease in emulsion viscosity occurs with increased aging time. Smaller changes in droplet size reflects the ability of the emulsifier to better stabilize particles. For example, the viscosity of the emulsion stabilized by SL-butyl amide decreased by 65% (from 344 Pas to 120 Pas) whereas the viscosity of the emulsion stabilized by SL-hexyl ester decreased by 20% (from 457 Pas to […]).
The viscosity was measured 24 hours after emulsion preparation. The viscosity increased with increasing surfactant concentration. Such behavior could not have been predicted by one skilled in the art without the teaching provided in this disclosure. The extent of viscosity change with surfactant concentration is related to the interfacial free energy at the droplet surface that reduces with the increase of surfactant concentration.

Series [5] is described as follows: Emulsion droplet size distribution, Coulter LS 230 analyzer. It is filed as physicochemical. Conditions: paraffin oil-to-water 7:3 v/v, 25° C. On the procedure:
Emulsified oil droplet size (average and standard deviation) was measured after suitable dilution of the emulsion phase using a Coulter LS 230 analyzer. […] Relative to natural and lactonic SL, selected MSLs show improved properties as emulsifiers on paraffin oil.
After being aged for 3-months, emulsified oil droplet size (average and standard deviation) was measured after suitable dilution of the emulsion phase using a Coulter LS 230 analyzer and the results are listed in Table 5. […] However, increasing the surfactant concentration from 1 to 2% did result in substantially smaller emulsion-phase droplet sizes. […] This is evidence that MSL's can stabilize oil phases greatly decreasing their tendency to undergo coalescence. […] It follows that the results of 3-month aging studies support the utility of selected MSLs for formation and stabilization of oil-in-water emulsions of paraffin oil phases. One skilled in the art would expect that the ability of these MSLs to stabilize paraffin oil phases teaches that they would also stabilize oil phases of similar structure.

The nature of series [6]: Solubility of MSLs in water. The source says:
If the material precipitates upon cooling or was to some extent insoluble, the insoluble material was separated by filtration, dried and weighed.

Setting [7] is: oil/water 7/3, 2%-by-weight relative to paraffin oil, 25° C.
The mark [8] stands for this setting: oil/water 7/3, 1% MSL, shear rate 1 S^−1.

Regarding `CCCCOC(=O)CCCCCCCC=CCCCCCCC(C)OC1OC(CO)C(O)C(O)C1OC1OC(CO)C(O)C(O)C1O` (stereo not drawn) [Compound 8, SL-Butyl Ester], in series [1], the “emulsion layer volume-%, one month” value stood at 50%; the “emulsion layer volume-%, start” value turned out to be 65%; the “emulsion phase, one month” value is 90%; the “emulsion layer, start” value is 95%. Moreover, the emulsion layer percentage in series [1] was 55%. In series [2], the “emulsion type by Oil Red O staining” value was “O/W”. Besides, in series [3], the “CMC Range” value is on record as 7-9 10^−6M and the “MST (minimum surface tension)” value is 34.5 mN/m. Further, in series [4] (setting [7]), the “emulsion viscosity at shear rate 1S^−1, after 3 months” value worked out at 376 Pas and the “emulsion viscosity at shear rate 1S^−1, before aging” value was 465 Pas. Moreover, the “viscosity decrease after 3 months” value in series [4] (oil/water 7/3, 2%-by-weight, shear rate 1S^−1) was 19.1%. The Average droplet size in series [5] (0.5 weight %, 24 hours) was found to be 2.5 ± 0.3 μm. For the same compound, in series [5] (0.5 weight %, aged 3-months), the Average droplet size was found to be 3.5 ± 0.4 μm. In series [5] (1 weight %, 24 hours), the Average droplet size is given as 2.4 ± 0.3 μm. Further, the Average droplet size in series [5] (1 weight %, aged 3-months) was found to be 3.1 ± 0.5 μm. Also, the Average droplet size in series [5] (2 weight %, 24 hours) was 1.7 μm and 1.7 ± 0.1 μm. Moreover, the Average droplet size in series [5] (2 weight %, aged 3-months) was 2.1 μm and 2.1 ± 0.4 μm. The compound also displayed a Solubility in series [6] of under 3000 µg/mL.
For `CCCCCCOC(=O)CCCCCCCC=CCCCCCCC(C)OC1OC(CO)C(O)C(O)C1OC1OC(CO)C(O)C(O)C1O` (stereo not drawn) [Compound 16, SL-Hexyl Ester], in series [1], the “emulsion layer volume-%, one month” value was found to be 65%; the “emulsion layer volume-%, start” value was determined as 70%; the “emulsion phase, one month” value stood at 85%; the “emulsion layer, start” value amounted to 95%. Moreover, the emulsion layer percentage in series [1] is 65%. The “emulsion type by Oil Red O staining” value in series [2] is given as “O/W”. Also, in series [3], the “CMC Range” value is 3-4 10^−6M and the “MST (minimum surface tension)” value is listed as 34.0 mN/m. In series [4] (setting [8]), the “low shear emulsion viscosity, after aging period” value was found to be 459 Pas; the “low shear emulsion viscosity, before aging” value came out at 457 Pas; the “viscosity decrease over the aging period” value stood at 20%. In series [5] (0.5 weight %, 24 hours), this compound gave an Average droplet size of 2.3 ± 0.4 μm. Also, the Average droplet size in series [5] (0.5 weight %, aged 3-months) came to 2.9 ± 0.2 μm. Also, in series [5] (1 weight %, 24 hours), the Average droplet size is listed as 2.1 ± 0.3 μm. In addition, the Average droplet size in series [5] (1 weight %, aged 3-months) turned out to be 2.5 ± 0.1 μm. For the same compound, the Average droplet size in series [5] (2 weight %, 24 hours) was found to be 1.7 ± 0.2 μm. In series [5] (2 weight %, aged 3-months), this compound displayed an Average droplet size of 1.9 ± 0.1 μm. The compound also yielded a Solubility in series [6] of under 5000 µg/mL.
